Source: PMC6120666 (The EMBO Journal, 2018)

How the values were obtained:
Experiment in all cases: Drug affinity chromatography with c-ponatinib and LC-MS/MS (ponatinib interactome)
Assay type in all cases: binding
[1] = molecular target: T1, proteins of U2OS cell lysate (Homo sapiens, UniProt Q06830)
T1 construct: Proteins enriched by c-ponatinib from U2OS cell lysate; endogenous in cells; host or cells: U2OS cell lysate
How it was run: (§1)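 U2OS cell lysate in NP-40 lysis buffer (2 mg protein per pulldown) was incubated with amine-derivatized NHS beads for 2 h at 4 °C. Bound proteins were washed, eluted with 100 mM formic acid, reduced, alkylated and trypsin-digested, then identified by nano-UPLC–MS/MS on Orbitrap instruments with a 60 min gradient.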

[2] = molecular target: T2, proteins of U2OS cell lysate (Homo sapiens, UniProt O75369)
T2 construct: Proteins enriched by c-ponatinib from U2OS cell lysate; endogenous in cells; host or cells: U2OS cell lysate
T2 sequence (O75369 whole entry): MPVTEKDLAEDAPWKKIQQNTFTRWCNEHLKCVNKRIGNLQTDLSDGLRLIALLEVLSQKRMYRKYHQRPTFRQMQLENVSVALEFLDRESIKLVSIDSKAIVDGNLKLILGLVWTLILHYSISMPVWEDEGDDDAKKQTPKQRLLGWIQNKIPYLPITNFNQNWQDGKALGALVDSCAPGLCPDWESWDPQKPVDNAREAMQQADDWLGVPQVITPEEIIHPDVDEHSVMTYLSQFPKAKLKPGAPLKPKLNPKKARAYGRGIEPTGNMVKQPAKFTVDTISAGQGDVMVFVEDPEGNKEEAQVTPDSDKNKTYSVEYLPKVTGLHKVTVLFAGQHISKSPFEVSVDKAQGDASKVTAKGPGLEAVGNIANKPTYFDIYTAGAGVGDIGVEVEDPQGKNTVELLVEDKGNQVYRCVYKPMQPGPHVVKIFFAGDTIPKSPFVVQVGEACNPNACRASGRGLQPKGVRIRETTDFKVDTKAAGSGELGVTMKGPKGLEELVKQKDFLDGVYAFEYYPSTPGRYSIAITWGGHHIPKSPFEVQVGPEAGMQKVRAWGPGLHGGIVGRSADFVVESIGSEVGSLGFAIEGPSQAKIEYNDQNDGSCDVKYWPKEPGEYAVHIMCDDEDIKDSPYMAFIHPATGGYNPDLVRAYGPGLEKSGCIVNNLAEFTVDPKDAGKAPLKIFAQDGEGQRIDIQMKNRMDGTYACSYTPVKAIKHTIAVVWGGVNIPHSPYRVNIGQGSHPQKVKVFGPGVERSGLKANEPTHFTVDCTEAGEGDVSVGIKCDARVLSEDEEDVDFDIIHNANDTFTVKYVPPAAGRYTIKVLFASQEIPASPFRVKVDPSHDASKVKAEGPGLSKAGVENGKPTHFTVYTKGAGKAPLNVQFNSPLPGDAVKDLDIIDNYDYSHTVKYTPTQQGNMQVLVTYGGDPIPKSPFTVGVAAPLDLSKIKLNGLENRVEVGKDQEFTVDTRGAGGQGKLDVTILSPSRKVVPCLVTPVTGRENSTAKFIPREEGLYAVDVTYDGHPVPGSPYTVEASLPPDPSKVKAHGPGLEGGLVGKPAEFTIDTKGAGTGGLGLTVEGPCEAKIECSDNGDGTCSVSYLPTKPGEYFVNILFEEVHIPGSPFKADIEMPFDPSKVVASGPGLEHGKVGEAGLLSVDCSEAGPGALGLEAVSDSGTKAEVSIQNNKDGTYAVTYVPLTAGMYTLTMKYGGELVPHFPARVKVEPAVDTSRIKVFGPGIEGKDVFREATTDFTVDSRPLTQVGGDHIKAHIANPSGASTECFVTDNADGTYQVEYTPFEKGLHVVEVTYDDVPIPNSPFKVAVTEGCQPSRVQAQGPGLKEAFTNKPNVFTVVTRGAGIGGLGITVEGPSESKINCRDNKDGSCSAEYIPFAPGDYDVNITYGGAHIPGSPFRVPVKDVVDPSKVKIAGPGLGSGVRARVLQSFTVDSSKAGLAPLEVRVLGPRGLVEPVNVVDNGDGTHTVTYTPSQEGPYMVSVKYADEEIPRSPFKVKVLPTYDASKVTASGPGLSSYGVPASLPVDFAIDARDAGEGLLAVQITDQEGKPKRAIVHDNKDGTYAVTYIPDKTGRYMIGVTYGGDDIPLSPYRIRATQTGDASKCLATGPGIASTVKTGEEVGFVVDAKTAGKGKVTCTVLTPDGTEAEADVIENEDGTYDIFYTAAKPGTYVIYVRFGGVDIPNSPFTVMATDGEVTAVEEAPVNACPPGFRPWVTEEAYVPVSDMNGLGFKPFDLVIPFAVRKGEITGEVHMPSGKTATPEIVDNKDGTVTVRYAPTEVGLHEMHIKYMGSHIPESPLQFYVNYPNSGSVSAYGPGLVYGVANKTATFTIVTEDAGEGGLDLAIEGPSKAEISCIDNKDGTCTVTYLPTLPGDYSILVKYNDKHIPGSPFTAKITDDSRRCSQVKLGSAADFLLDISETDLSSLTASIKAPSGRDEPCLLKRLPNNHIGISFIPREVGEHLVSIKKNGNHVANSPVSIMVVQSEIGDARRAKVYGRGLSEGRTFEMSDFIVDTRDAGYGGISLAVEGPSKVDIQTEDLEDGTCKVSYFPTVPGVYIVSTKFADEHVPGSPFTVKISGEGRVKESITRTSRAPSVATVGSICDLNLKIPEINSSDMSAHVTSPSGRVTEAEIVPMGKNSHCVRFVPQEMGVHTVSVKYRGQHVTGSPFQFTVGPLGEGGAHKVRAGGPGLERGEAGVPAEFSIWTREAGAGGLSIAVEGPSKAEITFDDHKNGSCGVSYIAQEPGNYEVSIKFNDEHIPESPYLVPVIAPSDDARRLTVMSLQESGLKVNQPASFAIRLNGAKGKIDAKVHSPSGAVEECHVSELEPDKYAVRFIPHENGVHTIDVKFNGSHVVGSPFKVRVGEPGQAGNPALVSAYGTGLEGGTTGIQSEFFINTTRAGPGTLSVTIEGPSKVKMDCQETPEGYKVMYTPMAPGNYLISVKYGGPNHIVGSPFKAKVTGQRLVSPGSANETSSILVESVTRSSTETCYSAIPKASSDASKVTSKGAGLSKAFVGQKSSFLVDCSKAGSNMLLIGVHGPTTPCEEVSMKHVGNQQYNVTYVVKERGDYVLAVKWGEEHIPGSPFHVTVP
How it was run: as §1

[3] = molecular target: T3, proteins of U2OS cell lysate (Homo sapiens, UniProt P09497)
T3 construct: Proteins enriched by c-ponatinib from U2OS cell lysate; endogenous in cells; host or cells: U2OS cell lysate
T3 sequence (P09497 whole entry): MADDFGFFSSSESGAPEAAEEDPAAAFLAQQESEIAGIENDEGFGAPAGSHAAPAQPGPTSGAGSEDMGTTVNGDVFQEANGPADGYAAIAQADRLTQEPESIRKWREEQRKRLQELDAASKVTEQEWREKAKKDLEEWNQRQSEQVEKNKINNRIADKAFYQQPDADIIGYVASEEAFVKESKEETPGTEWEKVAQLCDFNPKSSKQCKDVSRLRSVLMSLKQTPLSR
How it was run: as §1

[4] = molecular target: T4, proteins of U2OS cell lysate (Homo sapiens, UniProt P60228)
T4 construct: Proteins enriched by c-ponatinib from U2OS cell lysate; endogenous in cells; host or cells: U2OS cell lysate
T4 sequence (P60228 whole entry): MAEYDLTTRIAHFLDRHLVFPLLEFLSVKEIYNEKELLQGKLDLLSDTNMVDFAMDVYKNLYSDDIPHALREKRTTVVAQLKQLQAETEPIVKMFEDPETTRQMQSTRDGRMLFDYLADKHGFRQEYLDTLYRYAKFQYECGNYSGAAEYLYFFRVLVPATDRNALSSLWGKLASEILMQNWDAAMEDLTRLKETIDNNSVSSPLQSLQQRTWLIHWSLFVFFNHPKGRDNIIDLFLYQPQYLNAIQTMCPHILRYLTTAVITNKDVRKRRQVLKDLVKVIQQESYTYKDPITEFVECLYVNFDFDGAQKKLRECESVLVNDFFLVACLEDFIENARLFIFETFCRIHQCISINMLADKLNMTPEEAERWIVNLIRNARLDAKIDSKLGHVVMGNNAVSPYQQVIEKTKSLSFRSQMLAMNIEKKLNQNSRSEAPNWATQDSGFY
How it was run: as §1

[5] = molecular target: T5, proteins of U2OS cell lysate (Homo sapiens, UniProt Q14697)
T5 construct: Proteins enriched by c-ponatinib from U2OS cell lysate; endogenous in cells; host or cells: U2OS cell lysate
T5 sequence (Q14697 29-944): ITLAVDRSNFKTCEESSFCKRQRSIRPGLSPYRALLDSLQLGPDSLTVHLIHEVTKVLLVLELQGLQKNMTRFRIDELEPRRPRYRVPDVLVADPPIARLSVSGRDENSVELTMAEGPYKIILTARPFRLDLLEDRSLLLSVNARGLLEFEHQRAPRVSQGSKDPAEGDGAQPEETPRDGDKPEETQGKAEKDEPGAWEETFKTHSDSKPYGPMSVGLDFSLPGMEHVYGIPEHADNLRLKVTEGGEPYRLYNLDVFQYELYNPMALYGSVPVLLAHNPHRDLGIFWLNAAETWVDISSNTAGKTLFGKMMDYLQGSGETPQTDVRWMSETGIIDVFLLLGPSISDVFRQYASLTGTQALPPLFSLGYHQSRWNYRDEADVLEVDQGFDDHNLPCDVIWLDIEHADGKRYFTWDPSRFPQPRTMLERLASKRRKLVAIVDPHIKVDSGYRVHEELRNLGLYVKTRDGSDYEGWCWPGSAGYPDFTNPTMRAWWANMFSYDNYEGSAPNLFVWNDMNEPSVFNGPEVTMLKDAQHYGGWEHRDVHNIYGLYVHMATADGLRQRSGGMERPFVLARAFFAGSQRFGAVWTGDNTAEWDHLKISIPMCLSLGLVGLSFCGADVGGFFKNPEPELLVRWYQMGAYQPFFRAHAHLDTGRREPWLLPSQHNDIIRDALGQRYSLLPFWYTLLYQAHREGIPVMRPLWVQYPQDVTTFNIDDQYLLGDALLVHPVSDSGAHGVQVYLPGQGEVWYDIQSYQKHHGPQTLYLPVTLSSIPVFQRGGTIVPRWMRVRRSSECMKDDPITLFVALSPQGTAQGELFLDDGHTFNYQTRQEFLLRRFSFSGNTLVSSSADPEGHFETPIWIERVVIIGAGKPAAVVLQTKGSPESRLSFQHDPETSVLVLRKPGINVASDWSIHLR
How it was run: as §1

[6] = molecular target: T6, proteins of U2OS cell lysate (Homo sapiens, UniProt Q16891)
T6 construct: Proteins enriched by c-ponatinib from U2OS cell lysate; endogenous in cells; host or cells: U2OS cell lysate
How it was run: as §1

[7] = molecular target: T7, proteins of U2OS cell lysate (Homo sapiens, UniProt O75396)
T7 construct: Proteins enriched by c-ponatinib from U2OS cell lysate; endogenous in cells; host or cells: U2OS cell lysate
T7 sequence (O75396 whole entry): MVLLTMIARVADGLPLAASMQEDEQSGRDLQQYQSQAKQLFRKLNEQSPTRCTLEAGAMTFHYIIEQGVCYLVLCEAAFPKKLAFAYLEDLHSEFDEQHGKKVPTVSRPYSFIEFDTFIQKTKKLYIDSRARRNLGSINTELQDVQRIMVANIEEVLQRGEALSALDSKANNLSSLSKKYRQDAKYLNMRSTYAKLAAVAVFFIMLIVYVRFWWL
How it was run: as §1

[8] = molecular target: T8, proteins of U2OS cell lysate (Homo sapiens, UniProt P14618)
T8 construct: Proteins enriched by c-ponatinib from U2OS cell lysate; endogenous in cells; host or cells: U2OS cell lysate
How it was run: as §1

[9] = molecular target: T9, proteins of U2OS cell lysate (Homo sapiens, UniProt P12270)
T9 construct: Proteins enriched by c-ponatinib from U2OS cell lysate; endogenous in cells; host or cells: U2OS cell lysate
How it was run: as §1

[10] = molecular target: T10, proteins of U2OS cell lysate (Homo sapiens, UniProt P10515)
T10 construct: Proteins enriched by c-ponatinib from U2OS cell lysate; endogenous in cells; host or cells: U2OS cell lysate
T10 sequence (P10515 87-647): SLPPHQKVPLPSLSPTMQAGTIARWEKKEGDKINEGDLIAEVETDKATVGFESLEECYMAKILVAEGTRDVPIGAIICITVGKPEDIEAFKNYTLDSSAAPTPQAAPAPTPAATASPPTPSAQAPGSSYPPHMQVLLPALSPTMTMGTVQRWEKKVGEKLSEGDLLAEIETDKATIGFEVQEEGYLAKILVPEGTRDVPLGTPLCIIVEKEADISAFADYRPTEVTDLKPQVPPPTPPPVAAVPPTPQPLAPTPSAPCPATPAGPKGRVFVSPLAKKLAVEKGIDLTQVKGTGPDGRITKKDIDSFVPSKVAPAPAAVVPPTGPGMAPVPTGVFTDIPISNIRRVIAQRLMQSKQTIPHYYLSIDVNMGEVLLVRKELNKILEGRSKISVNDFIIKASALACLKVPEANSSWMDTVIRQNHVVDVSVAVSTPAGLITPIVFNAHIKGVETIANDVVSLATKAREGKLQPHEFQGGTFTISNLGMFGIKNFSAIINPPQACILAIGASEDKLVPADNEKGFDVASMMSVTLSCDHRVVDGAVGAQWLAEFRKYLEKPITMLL
How it was run: as §1

[11] = molecular target: T11, proteins of U2OS cell lysate (Homo sapiens, UniProt O95373)
T11 construct: Proteins enriched by c-ponatinib from U2OS cell lysate; endogenous in cells; host or cells: U2OS cell lysate
How it was run: as §1

[12] = molecular target: T12, proteins of U2OS cell lysate (Homo sapiens, UniProt P62805)
T12 construct: Proteins enriched by c-ponatinib from U2OS cell lysate; endogenous in cells; host or cells: U2OS cell lysate
How it was run: as §1

[13] = molecular target: T13, proteins of U2OS cell lysate (Homo sapiens, UniProt Q9BWU1)
T13 construct: Proteins enriched by c-ponatinib from U2OS cell lysate; endogenous in cells; host or cells: U2OS cell lysate
How it was run: as §1

[14] = system: proteins of U2OS cell lysate
How it was run: as §1

[15] = molecular target: T14, proteins of U2OS cell lysate (Homo sapiens, UniProt O75964)
T14 construct: Proteins enriched by c-ponatinib from U2OS cell lysate; endogenous in cells; host or cells: U2OS cell lysate
T14 sequence (O75964 whole entry): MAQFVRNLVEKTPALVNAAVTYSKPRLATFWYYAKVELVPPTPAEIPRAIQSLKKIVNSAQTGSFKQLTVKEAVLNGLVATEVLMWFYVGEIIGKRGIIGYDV
How it was run: as §1

[16] = molecular target: T15, proteins of U2OS cell lysate (Homo sapiens, UniProt P49327)
T15 construct: Proteins enriched by c-ponatinib from U2OS cell lysate; endogenous in cells; host or cells: U2OS cell lysate
How it was run: as §1

[17] = molecular target: T16, proteins of U2OS cell lysate (Homo sapiens, UniProt P12814)
T16 construct: Proteins enriched by c-ponatinib from U2OS cell lysate; endogenous in cells; host or cells: U2OS cell lysate
How it was run: as §1

[18] = molecular target: T17, proteins of U2OS cell lysate (Homo sapiens, UniProt Q15019)
T17 construct: Proteins enriched by c-ponatinib from U2OS cell lysate; endogenous in cells; host or cells: U2OS cell lysate
How it was run: as §1

SMILES: Cc1ccc(C(=O)Nc2ccc(CN3CCN(C)CC3)c(C(F)(F)F)c2)cc1C#Cc1cnc2cccnn12 [PON]
- Average LFQ PON_WT ([1]; PRDX1, Peroxiredoxin-1): 22.2382
- Average LFQ PON_WT ([2]; FLNB, Filamin-B): 21.8609
- Average LFQ PON_WT ([3]; CLTB, Clathrin light chain B): 22.5074
- Average LFQ PON_WT ([4]; EIF3E, Eukaryotic translation initiation factor 3 subunit E): 22.7111
- Average LFQ PON_WT ([5]; GANAB, Neutral alpha-glucosidase AB): 22.2601
- Average LFQ PON_WT ([6]; IMMT, Mitochondrial inner membrane protein): 22.0335
- Average LFQ PON_WT ([7]; SEC22B, Vesicle-trafficking protein SEC22b): 22.7294
- Average LFQ PON_WT ([8]; PKM, Pyruvate kinase PKM): 21.567
- Average LFQ PON_WT ([9]; TPR, Nucleoprotein TPR): 22.5124
- Average LFQ PON_WT ([10]; DLAT, Dihydrolipoyllysine-residue acetyltransferase component of pyruvate dehydrogenase complex, mitochondrial): 21.6984
- Average LFQ PON_WT ([11]; IPO7, Importin-7): 23.1828
- Average LFQ PON_WT ([12]; HIST1H4A, Histone H4): 22.1811
- Average LFQ PON_WT ([13]; CDK19, Cyclin-dependent kinase 19): 21.5435
- Average LFQ PON_WT ([14]; ACTG1;ACTB;ACTG2;ACTA1;ACTC1;ACTA2, Actin, cytoplasmic 2): 29.1554
- Average LFQ PON_WT ([14]; HIST1H1C;HIST1H1E;HIST1H1D;HIST1H1A, Histone H1.2): 24.5034
- Average LFQ PON_WT ([15]; ATP5L, ATP synthase subunit g, mitochondrial): 22.9891
- Average LFQ PON_WT ([16]; FASN, Fatty acid synthase): 22.4378
- Average LFQ PON_WT ([17]; ACTN1, Alpha-actinin-1): 22.3393
- Average LFQ PON_WT ([18]; SEPT2, Septin-2): 22.2443

SMILES: Cc1ccc(C(=O)Nc2ccc(CN3CCN(CCCN)CC3)c(C(F)(F)F)c2)cc1C#Cc1cnc2cccnn12 [c-ponatinib, reference compound]
- Average LFQ intensity ([1]; captured protein PRDX1, Rank 177): 22.2382
- Average LFQ intensity ([2]; captured protein FLNB, Rank 198): 21.8609
- Average LFQ intensity ([3]; captured protein CLTB, Rank 157): 22.5074
- Average LFQ intensity ([4]; captured protein EIF3E, Rank 148): 22.7111
- Average LFQ intensity ([5]; captured protein GANAB, Rank 172): 22.2601
- Average LFQ intensity ([6]; captured protein IMMT, Rank 188): 22.0335
- Average LFQ intensity ([7]; captured protein SEC22B, Rank 146): 22.7294
- Average LFQ intensity ([8]; captured protein PKM, Rank 224): 21.567
- Average LFQ intensity ([9]; captured protein TPR, Rank 156): 22.5124
- Average LFQ intensity ([10]; captured protein DLAT, Rank 215): 21.6984
- Average LFQ intensity ([11]; captured protein IPO7, Rank 116): 23.1828
- Average LFQ intensity ([12]; captured protein HIST1H4A, Rank 180): 22.1811
- Average LFQ intensity ([13]; captured protein CDK19, Rank 226): 21.5435
- Average LFQ intensity ([14]; captured protein ACTR1A;ACTR1B, Rank 131): 22.8935
- Average LFQ intensity ([14]; captured protein ATP1A1;ATP1A3;ATP1A2, Rank 167): 22.3247
- Average LFQ intensity ([14]; captured protein CDK1;CDK2, Rank 143): 22.743
- Average LFQ intensity ([14]; captured protein DYNLRB1;DYNLRB2, Rank 170): 22.2764
- Average LFQ intensity ([14]; captured protein GNB2;GNB4;GNB1, Rank 150): 22.669
- Average LFQ intensity ([14]; captured protein H3F3B;H3F3A;HIST2H3A;HIST3H3;HIST1H3A;H3F3C;HIST2H3PS2, Rank 159): 22.4876
- Average LFQ intensity ([14]; captured protein HNRNPA1;HNRNPA1L2, Rank 216): 21.6974
- Average LFQ intensity ([14]; captured protein LUC7L2;LUC7L, Rank 142): 22.7445
- Average LFQ intensity ([14]; captured protein MYL12A;MYL12B, Rank 201): 21.8427
- Average LFQ intensity ([14]; captured protein OGDH;OGDHL, Rank 189): 22.0277
- Average LFQ intensity ([14]; captured protein PSMA7;PSMA8, Rank 184): 22.0977
- Average LFQ intensity ([14]; captured protein RAB11A;RAB11B, Rank 162): 22.3634
- Average LFQ intensity ([14]; captured protein RPS10;RPS10P5, Rank 217): 21.6692
- Average LFQ intensity ([14]; captured protein RPS26;RPS26P11, Rank 219): 21.6239
- Average LFQ intensity ([14]; captured protein RPS27L;RPS27, Rank 208): 21.7512
- Average LFQ intensity ([14]; captured protein SNRPN;SNRPB, Rank 206): 21.7664
- Average LFQ intensity ([15]; captured protein ATP5L, Rank 125): 22.9891
- Average LFQ intensity ([16]; captured protein FASN, Rank 161): 22.4378
- Average LFQ intensity ([17]; captured protein ACTN1, Rank 166): 22.3393
- Average LFQ intensity ([18]; captured protein 2002-09-01 (Septin-2), Rank 174): 22.2443
